Results on 2 substances are retold here after patent US8637075B2, “Colostrum composition” (Pharma GP ApS, priority 2008, dated 2014).

Assay type in all cases: cell-based
For assay [1], the system named is neopterin formation in unstimulated PBMC. Briefly: Example 16: neopterin formation in unstimulated human PBMC. To be noted: 48 h. As for the experimental part:
(§1) PBMC were isolated from whole blood obtained from healthy donors, of whom informed consent was obtained that their donated blood unit was used for scientific purposes if not otherwise used. Separation of blood cells was performed using density centrifugation (Lymphoprep, Nycomed Pharma AS, Oslo, Norway). After isolation, PBMC were washed three times in phosphate buffered saline containing 0.2% EDTA [0.5 mmol/L]. Cells were maintained in RPMI 1640 supplemented with 10% heat-inactivated fetal calf serum (Biochrom, Berlin, Germany), 1% of 200 mmol/L glutamine (Serve, Heidelberg, Germany) and 0.1% of gentamicin (50 mg/ml, Bio-Whittaker, Walkersville, Md.) in a humidified atmosphere containing 5% CO2 for 48 h. […]
(§2) After incubation of cells for 48 h, supernatants were harvested by centrifugation and tryptophan and kynurenine concentrations were measured by high performance liquid chromatography (HPLC) using 3-nitro-L-tyrosine as internal standard (Widner and others 1997). To estimate IDO activity, the kynurenine to tryptophan ratio (kyn/trp) was calculated and expressed as μmol kynurenine/mmol tryptophan (Widner et al., 1997). Neopterin concentrations were determined by ELISA (BRAHMS, Hennigsdorf/Berlin, Germany) according to the manufacturer's instructions with a detection limit of 2 nmol/L. […]

For assay [2], the system named is neopterin formation in PHA-stimulated PBMC. Kind of assay: Example 16: neopterin formation in PHA-stimulated human PBMC. To be noted: PHA 10 μg/ml, 48 h. The method, then:
(§3) PBMC were isolated from whole blood obtained from healthy donors, of whom informed consent was obtained that their donated blood unit was used for scientific purposes if not otherwise used. Separation of blood cells was performed using density centrifugation (Lymphoprep, Nycomed Pharma AS, Oslo, Norway). After isolation, PBMC were washed three times in phosphate buffered saline containing […] [0.5 mmol/L]. Cells were maintained in RPMI 1640 supplemented with 10% heat-inactivated fetal calf serum (Biochrom, Berlin, Germany), 1% of 200 mmol/L glutamine (Serve, Heidelberg, Germany) and 0.1% of gentamicin (50 mg/ml, Bio-Whittaker, Walkersville, Md.) in a humidified atmosphere containing 5% CO2 for 48 h. This procedure was observed earlier to reveal best reproducible results when applied for testing of anti-inflammatory effects of compounds or drugs (Widner et al., 1997). Average tryptophan content in the supplemented RPMI 1640 medium was 31.5 μmol/L. For each of the three experiments run in duplicates, PBMC were freshly prepared. Isolated PBMC were plated at a density of 1.5×10^6 cells/ml in supplemented RPMI 1640, preincubated for 30 minutes with or without BC preparations and stimulated or not with 10 μg/ml PHA for 48 h.
(§4) After incubation of cells for 48 h, supernatants were harvested by centrifugation and tryptophan and kynurenine concentrations were measured by high performance liquid chromatography (HPLC) using 3-nitro-L-tyrosine as internal standard (Widner and others 1997). To estimate IDO activity, the kynurenine to tryptophan ratio (kyn/trp) was calculated and expressed as μmol kynurenine/mmol tryptophan (Widner et al., 1997). Neopterin concentrations were determined by ELISA (BRAHMS, Hennigsdorf/Berlin, Germany) according to the manufacturer's instructions with a detection limit of 2 nmol/L.
(§5) For statistical analysis, the Statistical Package for the Social Sciences (version 14 SPSS, Chicago, Ill., USA) was used. […] P-values below 0.05 were considered to indicate significant differences.

The subject of assay [3] is indoleamine 2,3-dioxygenase (IDO) activity in unstimulated PBMC. Briefly: Example 16: IDO activity (kyn/trp) in unstimulated human PBMC. The following applies: 20 mg/ml, 48 h. The method, then:
as §1, §2

Assay [4] has as its system indoleamine 2,3-dioxygenase (IDO) activity in PHA-stimulated PBMC. Kind of assay: Example 16: IDO activity (kyn/trp) in PHA-stimulated human PBMC. To be noted: PHA 10 μg/ml, 48 h. The method, then:
as §3, §4, §5

Consider lactoferrin, for which the “neopterin formation as % of unstimulated control” value in assay [1] (0.2 mg/ml) amounted to 125±2.8%; in assay [1] (2 mg/ml), 132±4.1%. For the same substance, the results for the “neopterin formation as % of PHA control” value in assay [2] (2 mg/ml) and in assay [2] (20 mg/ml) were 61.3±11.7% and 31.1±3.9%, respectively. Further, the “IDO activity (kyn/trp) as % of unstimulated control” value in assay [3] is recorded as 54.7±5.0%. Further, the “IDO activity (kyn/trp) as % of PHA control” value in assay [4] (0.2 mg/ml) amounted to 34.0±9.7%.

In the case of “phytohemagglutinin [phytohemagglutinin (PHA)]”, in assay [2] (PBMC), the “increase of neopterin concentration versus unstimulated PBMC” value is listed as “about 3.6 fold” and the “neopterin concentration in the supernatant” value is 13.2 ± 3.6 nmol/L. Besides, in assay [4] (PBMC), the Kyn/trp is on record as 1312±459 μmol/mmol, the “increase of IDO activity versus unstimulated PBMC” value is recorded as “approximately 47 fold”, the “kynurenine concentration in the supernatant” value was determined as 9.8 ± 1.3 µmol/L and the “tryptophan content in the supernatant” value came out at 8.2 ± 2.0 µmol/L.
